From patent US10294229B2, “Heteroaryl substituted aminopyridine compounds” (BRISTOL-MYERS SQUIBB COMPANY, priority 2015, dated 2019) come the findings set out here.

In one data set the target is IRAK4 (Homo sapiens (Human), UniProt Q9NWZ3). In words: IRAK4 Inhibition Assay. The settings on record: ATP 500 μM; IRAK4 0.6 nM. Format: biochemical. The gist of the method:
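Readout: electrophoretic (LabChip) separation of fluorescent peptide substrate from phosphorylated product after EDTA quench. Reactions ran 60 min at room temperature with 0.6 nM IRAK4, 1.5 μM peptide and 500 μM ATP; inhibition referenced to no-enzyme (100%) and vehicle (0%) controls.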

Data set [1] can be described thus: Caco-2 Permeability Assay. In kind it is in vitro ADME. The conditions noted are these: human, Caco-2, test compound 3 μM. As to the method:
Caco-2 Permeability Assay
Thirteen to 27 days prior to assay, Caco-2 cells were seeded onto collagen-coated polycarbonate filter membranes in 24-well transwell plates at a density of 1.45×10^5 cells/cm^2, approximately 4.8×10^4 cells per well. The cells were grown in a culture medium consisting of DMEM supplemented with 10% fetal bovine serum, 10 mM HEPES, 1% nonessential amino acids, 2 mM L-glutamine, 100 U/mL penicillin-G, and 100 μg/mL streptomycin. The culture medium was replaced every 3 days and the cells were maintained at 37° C. in a 95% relative humidity and 5% CO2 atmosphere. The cells were evaluated for tight junction formation just prior to assay. The test compound was solubilized to 10 mM in 100% DMSO and diluted to 3 μM in assay buffer. Permeability studies were initiated by adding 200 μL assay buffer plus/minus compound to the apical transwell compartment and 600 μL assay buffer plus/minus compound to the basolateral compartment of the 24-well transwell low-binding cluster plate. For apical-to-basolateral (A to B) permeability (absorptive direction), buffer containing compound was placed in the apical compartment (donor wells), while buffer alone was placed in the corresponding basolateral compartments (receiver wells). For basolateral-to-apical (B to A) permeability (secretive direction), buffer containing compound was placed in the basolateral compartment (donor wells), while buffer alone was placed in the corresponding apical compartments (receiver wells). Transwells were then incubated for 2 hours at 37° C. in a 95% relative humidity and 5% CO2 atmosphere with gentle agitation. Following incubation, 100 μL was removed from each apical and basolateral compartment and transferred to 96-well low binding plates that had been previously loaded with 100 μL/well of acetonitrile containing 250 nM propranolol, 250 nM diclofenac, and 500 nM tolbutamide as internal standards. The samples were subsequently analyzed by LC-MS/MS to determine concentrations of compound.
For orientation: Passage across Caco-2 layers is used to estimate intestinal permeability.

For data set [2], the system named is Human whole blood stimulated with a TLR2 agonist (lipoteichoic acid), IL-6 levels. In words: IRAK4 Whole Blood Assay. In kind it is cell-based. The settings on record: lipoteichoic acid 10 μg/mL. The gist of the method:
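IL-6 was quantified by cytometric bead assay in supernatants of human blood (ACD-A) stimulated for 5 h with lipoteichoic acid at 10 μg/mL final. Compound exposure preceded stimulation for 60 min at 37 °C, 5% CO2.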

Structures can show the parent of a compound that is named as a salt.

IRAK4, sequence (Q9NWZ3 whole entry, species assumed): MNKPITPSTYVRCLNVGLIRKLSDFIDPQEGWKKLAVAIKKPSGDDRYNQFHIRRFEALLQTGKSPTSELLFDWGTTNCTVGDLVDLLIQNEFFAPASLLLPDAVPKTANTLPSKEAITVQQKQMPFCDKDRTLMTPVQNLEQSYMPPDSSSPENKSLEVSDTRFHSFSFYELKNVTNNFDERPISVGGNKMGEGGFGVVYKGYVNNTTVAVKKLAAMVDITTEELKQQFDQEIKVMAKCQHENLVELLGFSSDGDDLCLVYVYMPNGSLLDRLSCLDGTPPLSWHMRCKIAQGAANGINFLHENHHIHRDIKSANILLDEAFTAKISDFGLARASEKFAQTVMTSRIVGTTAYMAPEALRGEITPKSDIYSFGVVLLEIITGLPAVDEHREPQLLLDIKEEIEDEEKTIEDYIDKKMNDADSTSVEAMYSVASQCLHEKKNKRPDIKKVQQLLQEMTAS

For the molecule `CC(C)Nc1cc(-n2ncc3cc(C#N)cnc32)ncc1-c1cn(CC2CC2(F)F)nn1` (single isomer, unassigned) [Example 31, 1-(5-(1-((2,2-difluorocyclopropyl)methyl)-1H-1,2,3-triazol-4-yl)-4-(isopropylamino)pyridin-2-yl)-1H-pyrazolo[3,4-b]pyridine-5-carbonitrile], the IC50 (in general, the midpoint of a concentration-inhibition curve) at IRAK4 turned out to be 7 nM. Besides, the Papp (usually the rate of passage across a membrane or cell layer, normalised by area and donor concentration) at 2 h, 3 µM in data set [1] is 15.9 ×10⁻⁶ cm/s. The EC50 – broadly, the concentration that produces a half-maximal response – in data set [2] is 1970 nM.
As for `CC(C)Nc1cc(-n2ncc3cc(C#N)cnc32)ncc1-c1cn([C@H](C)[C@H](C)O)nn1` (single isomer, unassigned) [Example 88], the IC50 on IRAK4 came to 5 nM. Further, in data set [1], the Papp at 2 h, 3 µM turned out to be 7.1 ×10⁻⁶ cm/s. Also, the response in data set [2] (Homo sapiens) was half-maximal at 1290 nM (EC50).
As to `CC(C)Nc1cc(-n2ncc3cc(C#N)cnc32)ncc1-c1cn([C@@H](C)[C@H](C)O)nn1` (single isomer, unassigned) [Example 90], the IC50 on IRAK4 came to 4 nM. Also, in data set [1], the Papp at 2 h, 3 µM stood at 10.1 ×10⁻⁶ cm/s. Moreover, the response in data set [2] was half-maximal at 170 nM (EC50).
As for `CCC(C)(O)Cn1cc(-c2cnc(-n3ncc4cc(C#N)cnc43)cc2NC(C)C)nn1` (single isomer, unassigned) [Example 92, 1-(5-(1-(2-hydroxy-2-methylbutyl)-1H-1,2,3-triazol-4-yl)-4-(isopropylamino)pyridin-2-yl)-1H-pyrazolo[3,4-b]pyridine-5-carbonitrile], the IC50 on IRAK4 amounted to 11 nM. The apparent permeability coefficient (Papp) at 2 h, 3 µM in data set [1] worked out at 12.4 ×10⁻⁶ cm/s. The response in data set [2] was half-maximal at 1120 nM (EC50).
For the molecule `CC(=O)N1CC[C@@H](n2cc(-c3cnc(-n4ncc5cc(C#N)cnc54)cc3NC(C)C)nn2)[C@H](O)C1` (single isomer, unassigned) [Example 197, 1-(5-(1-((trans)-1-acetyl-3-hydroxypiperidin-4-yl)-1H-1,2,3-triazol-4-yl)-4-(isopropylamino)pyridin-2-yl)-1H-pyrazolo[3,4-b]pyridine-5-carbonitrile], the IC50 on IRAK4 stood at 3 nM. For the same molecule, the Papp at 2 h, 3 µM in data set [1] is less than 1.5 ×10⁻⁶ cm/s. The EC50 in data set [2] (Homo sapiens) was found to be 170 nM.
On to `CC(=O)N1CC[C@@H](n2cc(-c3cnc(-n4ncc5cc(C#N)cnc54)cc3NC(C)C)nn2)[C@H](O)C1` (single isomer, unassigned) [Example 203], for which, at IRAK4, the IC50 stood at 4 nM. In data set [1], this molecule gave an apparent permeability coefficient (Papp) at 2 h, 3 µM of less than 1.5 ×10⁻⁶ cm/s. The molecule further registered an EC50 in data set [2] (Homo sapiens) of 720 nM.
The like results for `CC(C)Nc1cc(-n2ncc3cc(C#N)cnc32)ncc1-c1cn([C@@H]2CCN(C(=O)C(C)(C)C)C[C@H]2O)nn1` (single isomer, unassigned) [Example 206] were, in that order, 3 nM, 2 ×10⁻⁶ cm/s and 1900 nM.
For `CC(C)Nc1cc(-n2ncc3cc(C#N)cnc32)ncc1-c1cn([C@@H]2CCN(S(C)(=O)=O)C[C@H]2F)nn1` (single isomer, unassigned) [Example 210, 1-(5-(1-((trans)-3-fluoro-1-(methylsulfonyl)piperidin-4-yl)-1H-1,2,3-triazol-4-yl)-4-(isopropylamino)pyridin-2-yl)-1H-pyrazolo[3,4-b]pyridine-5-carbonitrile] the same measures were 2 nM, 4.3 ×10⁻⁶ cm/s and 510 nM.
The like results for `CC(F)Cc1cn(-c2cnc(-n3ncc4cc(C#N)cnc43)cc2NC(C)C)nn1` (single isomer, unassigned) [Example 289, 1-(5-(4-(2-fluoropropyl)-1H-1,2,3-triazol-1-yl)-4-(isopropylamino)pyridin-2-yl)-1H-pyrazolo [3,4-b]pyridine-5-carbonitrile] were, in that order, 6 nM, 47.4 ×10⁻⁶ cm/s and 200 nM.
For the molecule `CC(C)(O)CCc1cn(-c2cnc(-n3ncc4cc(C#N)cnc43)cc2NC2CCC(F)(F)C2)nn1` (single isomer, unassigned) [Example 347, 1-(4-((3,3-difluorocyclopentyl)amino)-5-(4-(3-hydroxy-3-methylbutyl)-1H-1,2,3-triazol-1-yl)pyridin-2-yl)-1H-pyrazolo[3,4-b]pyridine-5-carbonitrile], the IC50 on IRAK4 was determined as 2 nM. Further, in data set [1], the Papp at 2 h, 3 µM was 9.7 ×10⁻⁶ cm/s. The molecule further returned an EC50 in data set [2] (Homo sapiens) of 430 nM.
Turning to `CC(F)Cn1cc(-c2cnc(-n3ncc4cc(C#N)cnc43)cc2NC(C)C)nn1` (single isomer, unassigned; enantiomer 1) [Example 166, 1-(5-(1-(2-fluoropropyl)-1H-1,2,3-triazol-4-yl)-4-(isopropylamino)pyridin-2-yl)-1H-pyrazolo[3,4-b]pyridine-5-carbonitrile, enantiomer 1], the concentration for half-maximal inhibition (IC50) at IRAK4 was 6 nM. In data set [1], this molecule yielded a Papp at 2 h, 3 µM of 36.1 ×10⁻⁶ cm/s. Moreover, the EC50 in data set [2] was found to be 110 nM.
For `CC(C)Nc1cc(-n2ccc3cncnc32)ncc1-c1cn(CCN2CCOCC2)nn1` [Example 3, N-isopropyl-5-(1-(2-morpholinoethyl)-1H-1,2,3-triazol-4-yl)-2-(7H-pyrrolo[2,3-d]pyrimidin-7-yl)pyridin-4-amine], at IRAK4, the IC50 worked out at 2 nM. Moreover, in data set [1], the Papp at 2 h, 3 µM stood at 33 ×10⁻⁶ cm/s. A half-maximal effect in data set [2] (Homo sapiens) (EC50) was put at 560 nM.
As to `CC(C)Nc1cc(-n2ccc3cncnc32)ncc1-c1cn([C@@H]2CCNC[C@H]2O)nn1` [Example 4, (3R,4R)-4-(4-(4-(isopropylamino)-6-(7H-pyrrolo[2,3-d]pyrimidin-7-yl)pyridin-3-yl)-1H-1,2,3-triazol-1-yl)piperidin-3-ol], the IC50 at IRAK4 is 3 nM. Further, the apparent permeability coefficient (Papp) at 2 h, 3 µM in data set [1] was less than 1.5 ×10⁻⁶ cm/s. The EC50 in data set [2] (Homo sapiens) was 2530 nM.
With `CC(C)Nc1cc(-n2ccc3cncnc32)ncc1-c1cn([C@H]2CCNC[C@H]2O)nn1` [Example 6, (3R,4S)-4-(4-(4-(isopropylamino)-6-(7H-pyrrolo[2,3-d]pyrimidin-7-yl)pyridin-3-yl)-1H-1,2,3-triazol-1-yl)piperidin-3-ol], the IC50 on IRAK4 turned out to be 5 nM. The molecule further displayed a Papp at 2 h, 3 µM in data set [1] of 1.7 ×10⁻⁶ cm/s. Also, in data set [2] (Homo sapiens), it took 1450 nM to reach a half-maximal effect (EC50).
With `CC(C)Nc1cc(-n2ccc3cncnc32)ncc1-c1cn([C@@H]2CCNC[C@@H]2O)nn1` [Example 7, (3S,4R)-4-(4-(4-(isopropylamino)-6-(7H-pyrrolo[2,3-d]pyrimidin-7-yl)pyridin-3-yl)-1H-1,2,3-triazol-1-yl)piperidin-3-ol], the IC50 at IRAK4 came out at 7 nM. Besides, the Papp at 2 h, 3 µM in data set [1] was 3.9 ×10⁻⁶ cm/s. This molecule had a concentration for a half-maximal effect (EC50) in data set [2] (Homo sapiens) of 4120 nM.
Turning to `CC(C)CCn1cc(-c2cnc(-n3ncc4cc(C#N)cnc43)cc2NC(C)C)nn1` [Example 10, 1-(5-(1-isopentyl-1H-1,2,3-triazol-4-yl)-4-(isopropylamino)pyridin-2-yl)-1H-pyrazolo[3,4-b]pyridine-5-carbonitrile, TFA], at IRAK4, the IC50 is 3 nM. Moreover, the Papp at 2 h, 3 µM in data set [1] is 5.5 ×10⁻⁶ cm/s. This molecule also returned an EC50 in data set [2] (Homo sapiens) of 400 nM.
For `CC(C)Nc1cc(-n2ncc3cc(C#N)cnc32)ncc1-c1cn(CCO)nn1` [Example 11, 1-(5-(1-(2-hydroxyethyl)-1H-1,2,3-triazol-4-yl)-4-(isopropylamino)pyridin-2-yl)-1H-pyrazolo[3,4-b]pyridine-5-carbonitrile] the same measures were 11 nM, 2.8 ×10⁻⁶ cm/s and 1950 nM.
`CC(C)Nc1cc(-n2ncc3cc(C#N)cnc32)ncc1-c1cn(CCN2CCOCC2)nn1` [Example 12, 1-(4-(isopropylamino)-5-(1-(2-morpholinoethyl)-1H-1,2,3-triazol-4-yl)pyridin-2-yl)-1H-pyrazolo[3,4-b]pyridine-5-carbonitrile]: the IC50 on IRAK4 is 4 nM. The molecule further showed a Papp at 2 h, 3 µM in data set [1] of 23.4 ×10⁻⁶ cm/s. The molecule also registered an EC50 in data set [2] (Homo sapiens) of 310 nM.
Turning to `N#Cc1cnc2c(cnn2-c2cc(NC3CC3)c(-c3cn(CCN4CCOCC4)nn3)cn2)c1` [Example 13, 1-(4-(cyclopropylamino)-5-(1-(2-morpholinoethyl)-1H-1,2,3-triazol-4-yl)pyridin-2-yl)-1H-pyrazolo[3,4-b]pyridine-5-carbonitrile], on IRAK4, the half-inhibitory concentration (IC50) was 3 nM. In data set [1], this molecule registered a Papp at 2 h, 3 µM of 22.9 ×10⁻⁶ cm/s. Further, the EC50 in data set [2] (Homo sapiens) was found to be 270 nM.
As for `N#Cc1cnc2c(cnn2-c2cc(NC3CC3)c(-c3cn(CCO)nn3)cn2)c1` [Example 14, 1-(4-(cyclopropylamino)-5-(1-(2-hydroxyethyl)-1H-1,2,3-triazol-4-yl)pyridin-2-yl)-1H-pyrazolo[3,4-b]pyridine-5-carbonitrile], the concentration for half-maximal inhibition (IC50) on IRAK4 was found to be 3 nM. Moreover, the apparent permeability (Papp) at 2 h, 3 µM in data set [1] stood at 4.1 ×10⁻⁶ cm/s. In data set [2] (Homo sapiens), this molecule yielded an EC50 of 490 nM.
